Series [1] deals with Neuraminidase (Influenza A virus (A/Puerto Rico/8/1934(H1N1))) (UniProt P03468). The experiment in a line: Inhibition of Influenza A virus A/PR/8/34(H1N1) sialidase at 3.33 x 10^-4M preincubated for 15 mins followed by MUNA substrate addition measured after 15 mins by fluorescence assay relative to control.
Series [2] deals with Neuraminidase (Influenza A virus (A/Memphis/1/1971(H3N2))) (UniProt P03471). The experiment in a line: Inhibition of Influenza A virus A/Memphis/1/71(H3N2) sialidase at 3.33 x 10^-4M preincubated for 15 mins followed by MUNA substrate addition measured after 15 mins by fluorescence assay relative to control.
Series [3] is described as follows: Inhibition of Influenza A virus A/Duck/313/4/78(H5N3) sialidase at 3.33 x 10^-4M preincubated for 15 mins followed by MUNA substrate addition measured after 15 mins by fluorescence assay relative to control.
The next series concerns MDCK. The experiment in a line: Cytotoxicity against MDCK cells assessed as reduction in cell viability at 1 x 10^-5 M after 24 hrs by CCK8 assay. To be noted: dog, 10 µM. The format is cell-based, Canis lupus familiaris.
The test system of series [4] is Influenza A virus. The series is described as follows: Antiviral activity against Influenza A virus A/PR/8/34(H1N1) infected in MDCK cells assessed as viral yield at 1 x 10^-5 M preincubated with virus for 1 hr followed by viral infection measured after 18 hrs by beta-galactosidase based fluorescence assay (reference value: 100%). The series is classed as functional, A/Puerto Rico/8/1934(H1N1).

The subject of series [5] is Influenza A virus. The series is described as follows: Antiviral activity against Influenza A virus A/PR/8/34(H1N1) infected in MDCK cells assessed as reduction in viral yield at 1 x 10^-5 M preincubated with virus for 1 hr followed by viral infection measured after 18 hrs by beta-galactosidase based fluorescence assay. To be noted: A/Puerto Rico/8/1934(H1N1). The format is functional, organism-based.

Drawing on ChEMBL document CHEMBL4177726, “Synthesis and anti-influenza virus evaluation of triterpene-sialic acid conjugates” (Bioorg Med Chem, 2018), this text covers inhibition and Activity for 11 compounds.

Neuraminidase (Influenza A virus (A/Memphis/1/1971(H3N2))), sequence (P03471 whole entry): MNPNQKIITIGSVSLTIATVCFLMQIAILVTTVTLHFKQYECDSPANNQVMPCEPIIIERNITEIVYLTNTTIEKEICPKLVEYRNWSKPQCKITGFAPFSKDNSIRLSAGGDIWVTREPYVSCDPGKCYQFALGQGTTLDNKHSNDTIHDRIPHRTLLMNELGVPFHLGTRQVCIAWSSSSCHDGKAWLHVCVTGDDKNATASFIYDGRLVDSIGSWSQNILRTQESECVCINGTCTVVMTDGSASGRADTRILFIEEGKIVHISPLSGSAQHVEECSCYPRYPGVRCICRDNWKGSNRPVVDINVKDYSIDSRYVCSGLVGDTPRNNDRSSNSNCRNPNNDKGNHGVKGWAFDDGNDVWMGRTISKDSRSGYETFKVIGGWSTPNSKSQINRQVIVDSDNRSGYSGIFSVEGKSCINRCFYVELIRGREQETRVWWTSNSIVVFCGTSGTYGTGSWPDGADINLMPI
Neuraminidase (Influenza A virus (A/Puerto Rico/8/1934(H1N1))), sequence (P03468 whole entry): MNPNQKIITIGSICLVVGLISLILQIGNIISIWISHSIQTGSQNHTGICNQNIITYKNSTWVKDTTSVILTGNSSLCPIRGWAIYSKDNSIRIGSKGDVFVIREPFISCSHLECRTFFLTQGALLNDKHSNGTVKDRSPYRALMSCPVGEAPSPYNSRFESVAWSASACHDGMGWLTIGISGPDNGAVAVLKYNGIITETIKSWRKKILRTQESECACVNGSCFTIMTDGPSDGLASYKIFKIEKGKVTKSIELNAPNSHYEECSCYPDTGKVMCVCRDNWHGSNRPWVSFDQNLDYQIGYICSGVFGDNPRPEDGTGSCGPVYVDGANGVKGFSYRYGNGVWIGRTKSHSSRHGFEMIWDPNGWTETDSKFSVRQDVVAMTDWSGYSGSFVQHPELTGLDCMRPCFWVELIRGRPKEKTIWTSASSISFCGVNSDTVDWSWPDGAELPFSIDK

As to `CC(=O)N[C@H]1[C@H]([C@H](O)[C@H](O)CO)O[C@](O[C@H]2CC[C@]3(C)[C@H]4CC=C5[C@@H]6C[C@@](C)(CO)CC[C@]6(C)CC[C@@]5(C)[C@]4(C)CC[C@H]3C2(C)C)(C(=O)O)C[C@@H]1O`, the results for the inhibition in series [1], in series [2] and in series [3] were 76.7%, 68.7% and 55.7%, respectively. Moreover, the Activity entry with MDCK was “Non-Toxic”; with Influenza A virus [4], 72.6%; with Influenza A virus [5] it was “Dose-dependent effect”.

With `CC(=O)N[C@H]1[C@H]([C@H](O)[C@H](O)CO)O[C@@](O[C@H]2CC[C@]3(C)[C@H]4C(=O)C=C5[C@@H]6C[C@@](C)(C(=O)O)CC[C@]6(C)CC[C@@]5(C)[C@]4(C)CC[C@H]3C2(C)C)(C(=O)O)C[C@@H]1O`, the inhibition in series [1] turned out to be 50.1%; in series [2], 27.4%; in series [3], 16.4%.

Consider `COC(=O)[C@@]1(C)CC[C@]2(C)CC[C@]3(C)C(=CC(=O)[C@@H]4[C@@]5(C)CC[C@H](O[C@@]6(C(=O)O)C[C@H](O)[C@@H](NC(C)=O)[C@H]([C@H](O)[C@H](O)CO)O6)C(C)(C)[C@@H]5CC[C@]43C)[C@@H]2C1`, for which the inhibition in series [1] worked out at 35.4%; in series [2], 44.8%; in series [3], 46.2%.

Turning to `CC(=O)N[C@H]1[C@H]([C@H](O)[C@H](O)CO)O[C@](O[C@H]2CC[C@]3(C)[C@H]4C(=O)C=C5[C@@H]6C[C@@](C)(C(=O)O)CC[C@]6(C)CC[C@@]5(C)[C@]4(C)CC[C@H]3C2(C)C)(C(=O)O)C[C@@H]1O`, the inhibition in series [1] came to 21.1%; in series [2] it was 23.4%; in series [3], 25.8%.

For `CC(=O)N[C@H]1[C@H]([C@H](O)[C@H](O)CO)O[C@@](O[C@H]2CC[C@]3(C)[C@H]4C(=O)C=C5[C@@H]6C[C@@](C)(CO)CC[C@]6(C)CC[C@@]5(C)[C@]4(C)CC[C@H]3C2(C)C)(C(=O)O)C[C@@H]1O`, the inhibition in series [1] was 50.3%; in series [2], 30.3%; in series [3], 25.3%.

Take `CC(=O)N[C@H]1[C@H]([C@H](O)[C@H](O)CO)O[C@@](O[C@H]2CC[C@]3(C)[C@H]4CC=C5[C@@H]6C[C@@](C)(CO)CC[C@]6(C)CC[C@@]5(C)[C@]4(C)CC[C@H]3C2(C)C)(C(=O)O)C[C@@H]1O`: the figures for the inhibition in series [1], in series [2] and in series [3] were 71%, 45% and 57.6%, respectively. For the same compound, the Activity entry with MDCK is “Non-Toxic”; in the series with Influenza A virus [4], 88%.

Take `COC(=O)[C@]12CCC(C)(C)C[C@H]1C1=CC[C@@H]3[C@@]4(C)CC[C@H](O[C@]5(C(=O)O)C[C@H](O)[C@@H](NC(C)=O)[C@H]([C@H](O)[C@H](O)CO)O5)C(C)(C)[C@@H]4CC[C@@]3(C)[C@]1(C)CC2`: the figures for the inhibition in series [1], in series [2] and in series [3] were 74.9%, 70.7% and 65.7%, respectively. Further, the Activity entry with MDCK is recorded as “Non-Toxic”; in the series with Influenza A virus [4], 39.4%.

As for `COC(=O)[C@@]1(C)CC[C@]2(C)CC[C@]3(C)C(=CC(=O)[C@@H]4[C@@]5(C)CC[C@H](O[C@]6(C(=O)O)C[C@H](O)[C@@H](NC(C)=O)[C@H]([C@H](O)[C@H](O)CO)O6)C(C)(C)[C@@H]5CC[C@]43C)[C@@H]2C1`, the inhibition in series [1] was 52.2%; in series [2] it was 39.9%; in series [3], 27.5%.

Consider `COC(=O)[C@]12CCC(C)(C)C[C@H]1C1=CC[C@@H]3[C@@]4(C)CC[C@H](O[C@@]5(C(=O)O)C[C@H](O)[C@@H](NC(C)=O)[C@H]([C@H](O)[C@H](O)CO)O5)C(C)(C)[C@@H]4CC[C@@]3(C)[C@]1(C)CC2`, for which the inhibition is 89.9% in series [1], 64.9% in series [2] and 70.7% in series [3]. Also, the Activity entry was “Non-Toxic” in the series with MDCK, 46.7% in the series with Influenza A virus [4] and “Dose-dependent effect” with Influenza A virus [5].

For the compound `CC(=O)N[C@H]1[C@H]([C@H](O)[C@H](O)CO)O[C@](O[C@H]2CC[C@]3(C)[C@H]4C(=O)C=C5[C@@H]6C[C@@](C)(CO)CC[C@]6(C)CC[C@@]5(C)[C@]4(C)CC[C@H]3C2(C)C)(C(=O)O)C[C@@H]1O`, the results for the inhibition in series [1], in series [2] and in series [3] were 35.8%, 40.3% and 43.8%, respectively.

Consider `CC(=O)N[C@H]1[C@H]([C@H](O)[C@H](O)CO)O[C@](O[C@H]2CC[C@]3(C)[C@H]4CC=C5[C@@H]6CC(C)(C)CC[C@]6(C(=O)O)CC[C@@]5(C)[C@]4(C)CC[C@H]3C2(C)C)(C(=O)O)C[C@@H]1O`, for which the inhibition in series [1] came out at 33.2%; in series [2] it was 26.5%; in series [3], 34.6%.

One may read the inhibition as how much of the control response was suppressed.
